Reference: patent US7519519B1, “Signature projection score” (Entelos, Inc., priority 2002, dated 2009)
Where two headings read alike, the source gives them in different places. Marks after values point to notes of the source that are not given here.

Legend:
[1] = tested on: Leukocyte Depletion Signature; experiment: Signature Projection Score against the Leukocyte Depletion Signature, spleen gene expression data; type: in vivo, rat; details: maximum over treatments, normalized so highest training treatment = 100, * = p < 0.01, ** = p < 0.001
Description: (§1) Control animals were dosed with vehicle only.

[2] = tested on: Leukocyte Depletion Signature; experiment: Signature Projection Score against the Leukocyte Depletion Signature, bone marrow gene expression data; details: maximum over treatments, normalized so highest training treatment = 100, * = p < 0.01, ** = p < 0.001
Description: Using only the genes in the signature, the amount and direction of gene expression changes in an experimental sample are compared (in terms of log ratio of expression signals) against a reference gene expression change (computed as the average over a characterizing set of treatments in our database). The sum over genes of the product of these two differences is computed, and normalized such that the highest score of any of the characterizing treatments when calculated in this way is 100.
After determination of the MTD and FED for a compound, each compound was dissolved in a vehicle for administration on day 1 of the study (additional daily doses were stored as frozen aliquots from this initial formulation). Each compound was administered to three individual male Sprague-Dawley rats for each of the two doses (MTD and FED) for one of four different times (0.25 day, 1 day, 3 days, and 5 days), yielding a total of up to 24 animals per compound study. Vehicle choice was based on solubility of the compound, effect of food on adsorption, and the vehicles used in the literature reports examined during the FED selection investigations, described above. Generally, the route and vehicle in which the FED was defined are used. When there was a choice of routes and vehicles, oral routes were chosen over injection routes. Many compounds, especially oncolytics, are only administrable intravenously. In such cases, the compound was administered as an intravenous formulation into the tail vein. Orally administered compounds were given dissolved in either water, 1% carboxymethycellulose (CMC) or corn oil. Intravenously and intraperitoneally administered compounds were given in 0.9% saline. Subcutaneously administered compounds were given in corn oil. Animal body weights were determined at 1 day and, where appropriate, at 4 days, before necropsy, and clinical observations were made on a daily basis. Control animals were dosed with vehicle only. Three male animals were used for each dose and time combination used for the compound treatment.
Tissue harvest and handling: After the allocated treatment time, the tissues from the animals were harvested. […] All the tissues collected were divided to provide samples for histopathological analyses, and the remainder of each tissue was then snap-frozen. […] Preparation of enriched mRNA: Punch biopsies were taken from the frozen tissues and were completely homogenized before being processed using the MagNA Pure robot. (Roche Diagnostics Corp., Indianapolis, Ind.) in combination with the MagNA Pure LC RNA Isolation kit II (Roche Diagnostics Corp). The amount of lysis buffer was adjusted to allow 1 ml per 50 mg for liver tissue, or 1 ml per 80 mg for all other tissues.

[3] = tested on: leukocytes
Description: as §1
The Leukocyte Depletion Signature was derived by analysis of a subset of data from about 2000 in vivo rat drug treatments (using about 300 individual drugs) representing multiple tissues; the method for creation of this dataset is described in the general methods section.

[4] = time point 5 days, average of 3 animals, * = p < 0.01

SMILES | Max Spleen Score (Signature Projection Score) [1] | Max Bone Marrow Score (Signature Projection Score) [2] | Max Fold Serum Leukocyte Depletion ([3]; rat, in vivo) | Max Fold Serum Leukocyte Depletion ([3]; maximum over treatments) | Fold Decrease in leukocytes ([3]; rat, in vivo) | Fold Decrease in leukocytes [3, 4]
NC(=O)NO [HYDROXYUREA] | 15 | 13 | 2.92 fold |  |  | 
O=P1(NCCCl)OCCCN1CCCl (stereo not drawn) [IFOSFAMIDE] | 11 | 79** |  |  |  | 
S=C=Nc1cccc2ccccc12 [1-NAPHTHYL ISOTHIOCYANATE] |  | 0 |  | 0 fold |  | 
O=C1[O][Pt]2([NH][C@@H]3CCCC[C@H]3[NH]2)[O]C1=O [OXALIPLATIN] |  | 14 |  | 2.18 fold |  | 
CN(Cc1cnc2nc(N)nc(N)c2n1)c1ccc(C(=O)N[C@@H](CCC(=O)O)C(=O)O)cc1 [METHOTREXATE] | 75** | 6 | 4.35 fold |  | 4.35* fold | 
CS(=O)(=O)OCCCCOS(C)(=O)=O [BUSULFAN] | 32* | 19 | 0 fold |  |  | 
Cc1oncc1C(=O)Nc1ccc(C(F)(F)F)cc1 [LEFLUNOMIDE] | 34* | 7 | 2.89 fold |  |  | 
O=NN(CCCl)C(=O)NCCCl [CARMUSTINE] | 31* | 39* |  | 4.49 fold |  | 4.49* fold
CC(C)(c1ccc(O)cc1)c1ccc(O)cc1 [BISPHENOL A] | 3 | 0 | 0 fold |  |  | 
CN(C)c1nc(N(C)C)nc(N(C)C)n1 [ALTRETAMINE] | 5 | 3 | 0 fold |  |  | 
C[C@H]1O[C@@H](n2cc(F)c(=O)[nH]c2=O)[C@H](O)[C@@H]1O [DOXIFLURIDINE] |  | 56* | 0 fold |  |  | 
CC[C@]1(O)C[C@H]2CN(CCc3c([nH]c4ccccc34)[C@@](C(=O)OC)(c3cc4c(cc3OC)N(C=O)[C@H]3[C@@](O)(C(=O)OC)[C@H](OC(C)=O)[C@]5(CC)C=CCN6CC[C@]43[C@@H]65)C2)C1 [VINCRISTINE] |  | 5 |  |  |  | 
Nc1ccn([C@@H]2O[C@H](CO)[C@@H](O)[C@@H]2O)c(=O)n1 [CYTARABINE] | 15 | 2 | 2.85 fold |  |  | 
CC/C(=C(/CC)c1ccc(O)cc1)c1ccc(O)cc1 [DIETHYLSTILBESTROL] | 30* | 2 |  |  |  | 
O=C(O)CCCc1ccc(N(CCCl)CCCl)cc1 [CHLORAMBUCIL] | 65* | 9 |  | 7.08 fold |  | 7.08* fold
Nc1nc2nc[nH]c2c(=S)[nH]1 [THIOGUANINE] | 100** | 24* | 3.63 fold |  | 3.63* fold | 

SMILES | Max Spleen Score (Signature Projection Score) [1] | Max Bone Marrow Score (Signature Projection Score) [2] | Max Fold Serum Leukocyte Depletion ([3]; rat, in vivo) | Max Fold Serum Leukocyte Depletion ([3]; maximum over treatments) | Fold Decrease in leukocytes ([3]; rat, in vivo) | Fold Decrease in leukocytes [3, 4]
CO[C@@]12[C@H](COC(N)=O)C3=C(C(=O)C(C)=C(N)C3=O)N1C[C@@H]1N[C@@H]12 [MITOMYCIN C] | 57* | 7 |  | 3.53 fold |  | 3.53* fold
CN(C)C=O [N,N-DIMETHYLFORMAMIDE] | 3 | 0 |  |  |  | 
COc1cc([C@@H]2c3cc4c(cc3[C@@H](O[C@@H]3O[C@@H]5CO[C@@H](C)O[C@H]5[C@H](O)[C@H]3O)[C@H]3COC(=O)[C@H]23)OCO4)cc(OC)c1O [ETOPOSIDE] | 47* | 43* | 2.04 fold |  |  | 
CCN(CC)N=O [N-NITROSODIETHYLAMINE] | 0 | 7 |  |  |  | 
COc1cccc2c1C(=O)c1c(O)c3c(c(O)c1C2=O)C[C@@](O)(C(=O)CO)C[C@@H]3O[C@H]1C[C@H](N)[C@H](O)[C@H](C)O1 [DOXORUBICIN] | 75** | 41* | 4.70 fold |  |  | 
ClC(Cl)(Cl)Cl [CARBON TETRACHLORIDE] |  | 2 |  | 0 fold |  | 
N.N.[Cl][Pt][Cl] [CISPLATIN] | 25* | 7 |  | 2.01 fold |  | 
Oc1c(Cl)cc(Cl)cc1Sc1cc(Cl)cc(Cl)c1O [BITHIONOL] | 2 | 4 | 0 fold |  |  | 
CCO [ETHANOL] |  | 2 | 0 fold |  |  | 
N.N.O=C([O-])C1(C(=O)[O-])CCC1.[Pt+2] [CARBOPLATIN] | 8 | 2 |  | 0 fold |  | 
COc1cccc2c1C(=O)c1c(O)c3c(c(O)c1C2=O)C[C@@](O)(C(C)=O)C[C@@H]3O[C@H]1C[C@H](N)[C@H](O)[C@H](C)O1 [DAUNORUBICIN] |  | 54* |  | 2.77 fold |  | 
Cn1cnc([N+](=O)[O-])c1Sc1ncnc2nc[nH]c12 [AZATHIOPRINE] | 19 | 11 | 0 fold |  |  | 
CCC1=C[C@@H]2CN(C1)Cc1c([nH]c3ccccc13)[C@@](C(=O)OC)(c1cc3c(cc1OC)N(C)[C@H]1[C@@](O)(C(=O)OC)[C@H](OC(C)=O)[C@]4(CC)C=CCN5CC[C@]31[C@@H]54)C2 [VINORELBINE] |  | 44* | 1.93 fold |  |  | 
O=NN(CCCl)C(=O)NC1CCCCC1 [LOMUSTINE] | 23* | 3 |  | 0 fold |  | 
CC[C@]1(O)C[C@@H]2CN(CCc3c([nH]c4ccccc34)[C@@](C(=O)OC)(c3cc4c(cc3OC)N(C)[C@H]3[C@@](O)(C(=O)OC)[C@H](OC(C)=O)[C@]5(CC)C=CCN6CC[C@]43[C@@H]65)C2)C1 [VINBLASTINE] |  | 11 |  |  |  | 
COc1c(C)c2c(c(O)c1C/C=C(\C)CCC(=O)OCCN1CCOCC1)C(=O)OC2 [MYCOPHENOLATE MOFETIL] |  | 9 |  |  |  | 
